Laboratory results taken from patent US20170283834A1, “Processes for Producing A Fermentation Product Using A Fermenting Organism” (Novozymes A/S, priority 2014, published 2017).

Tested on: Ethanol Red™
Assay: Addition of benzoate, propionate and formate to ethanol fermentations (SSF of corn mash)
Assay type: cell-based, Saccharomyces cerevisiae
Conditions: for Glycerol pH 3.8 (w/v %) / Glycerol pH 5 (w/v %) / ETOH pH 3.8 (w/v %) / ETOH pH 5 (w/v %) / % Boost over no added acid: 54 hours; for % Boost over no added acid: ethanol; for % Change from no added acid: glycerol
Description: Industrially prepared corn mash was obtained from Lincolnland (Liquozyme™ SODS liquefaction).
After 15 minutes, the flasks were swirled, but no other agitation took place.
The pH after liquefaction was 4.9 and was adjusted to various pHs for SSF. […] Glucoamylase SA (“GSA”)/Cellulase VD (“CVD”) enzyme blend was dosed to each tube of mash at 110 μg EP GSA/gDS and 30 μg EP CVD/gDS. […] Benzoic acid was added in the range of 0-0.8 mM. Propionic and Formic acid were added in the range of 0-30 mM. All acid additions were done prior to inoculation (i.e., before exponential growth).
Each tube was processed for HPLC analysis by deactivation with 150 μL of 40% v/v H2SO4, vortexing, centrifuging at 1460×g for 10 minutes, and filtering through a 0.45 μm Whatman PP filter. All samples were processed without further dilution.

[1] = acid Concentration 0.2 (mM), pH 3.8
[2] = acid Concentration 0.2 (mM), pH 5
[3] = acid Concentration 0.5 (mM), pH 3.8
[4] = acid Concentration 0.5 (mM), pH 5
[5] = acid Concentration 0.8 (mM), pH 3.8
[6] = acid Concentration 0.8 (mM), pH 5
[7] = acid Concentration 10 (mM), pH 3.8
[8] = acid Concentration 10 (mM), pH 5
[9] = acid Concentration 20 (mM), pH 3.8
[10] = acid Concentration 20 (mM), pH 5
[11] = acid Concentration 30 (mM), pH 3.8
[12] = acid Concentration 30 (mM), pH 5

Compound: O=C(O)c1ccccc1 [Benzoic Acid, benzoic acid]
- effect of acid addition on fermentation performance: increases fermentation performance
- Glycerol pH 3.8 (w/v %) (Concentration 0.2 mM, pH 3.8): 1.159 w/v %
- Glycerol pH 5 (w/v %) (Concentration 0.2 mM, pH 5): 1.160 w/v %
- Glycerol pH 3.8 (w/v %) (Concentration 0.5 mM, pH 3.8): 1.091 w/v %
- Glycerol pH 5 (w/v %) (Concentration 0.5 mM, pH 5): 1.127 w/v %
- Glycerol pH 3.8 (w/v %) (Concentration 0.8 mM, pH 3.8): 1.041 w/v %
- Glycerol pH 5 (w/v %) (Concentration 0.8 mM, pH 5): 1.093 w/v %
- ETOH pH 3.8 (w/v %) [1]: 13.73 w/v %
- ETOH pH 5 (w/v %) [2]: 13.01 w/v %
- ETOH pH 3.8 (w/v %) [3]: 13.6785 w/v %
- ETOH pH 5 (w/v %) [4]: 13.23 w/v %
- ETOH pH 3.8 (w/v %) [5]: 13.35 w/v %
- ETOH pH 5 (w/v %) [6]: 13.39 w/v %
- % Boost over no added acid [1]: 2.70%
- % Boost over no added acid [2]: 0.27%
- % Boost over no added acid [3]: 2.33%
- % Boost over no added acid [4]: 1.96%
- % Boost over no added acid [5]: −0.12%
- % Boost over no added acid [6]: 3.20%
- % Change from no added acid (Concentration 0.2 mM, pH 3.8): −11.47%
- % Change from no added acid (Concentration 0.2 mM, pH 5): −13.60%
- % Change from no added acid (Concentration 0.5 mM, pH 3.8): −16.65%
- % Change from no added acid (Concentration 0.5 mM, pH 5): −16.08%
- % Change from no added acid (Concentration 0.8 mM, pH 3.8): −20.45%
- % Change from no added acid (Concentration 0.8 mM, pH 5): −18.58%

Compound: O=CO [Formic Acid, formic acid]
- effect of acid addition on fermentation performance: boost
- Glycerol pH 3.8 (w/v %) (Concentration 10 mM, pH 3.8): 1.078 w/v %
- Glycerol pH 5 (w/v %) (Concentration 10 mM, pH 5): 1.175 w/v %
- Glycerol pH 3.8 (w/v %) (Concentration 20 mM, pH 3.8): 1.070 w/v %
- Glycerol pH 5 (w/v %) (Concentration 20 mM, pH 5): 1.117 w/v %
- Glycerol pH 3.8 (w/v %) (Concentration 30 mM, pH 3.8): 0.966 w/v %
- Glycerol pH 5 (w/v %) (Concentration 30 mM, pH 5): 1.111 w/v %
- ETOH pH 3.8 (w/v %) [7]: 13.69 w/v %
- ETOH pH 5 (w/v %) [8]: 13.1 w/v %
- ETOH pH 3.8 (w/v %) [9]: 13.41 w/v %
- ETOH pH 5 (w/v %) [10]: 13.22 w/v %
- ETOH pH 3.8 (w/v %) [11]: 6.458 w/v %
- ETOH pH 5 (w/v %) [12]: 13.2 w/v %
- % Boost over no added acid [7]: 2.45%
- % Boost over no added acid [8]: 0.94%
- % Boost over no added acid [9]: 0.31%
- % Boost over no added acid [10]: 1.84%
- % Boost over no added acid [11]: −51.69%
- % Boost over no added acid [12]: 1.70%
- % Change from no added acid (Concentration 10 mM, pH 3.8): −17.68%
- % Change from no added acid (Concentration 10 mM, pH 5): −12.49%
- % Change from no added acid (Concentration 20 mM, pH 3.8): −18.24%
- % Change from no added acid (Concentration 20 mM, pH 5): −16.81%
- % Change from no added acid (Concentration 30 mM, pH 3.8): −26.19%
- % Change from no added acid (Concentration 30 mM, pH 5): −17.26%
